According to patent US20060051787A1, “Quantitative PCR for analysis of DNA damage induced by PGHS-2 (COX-2) or other factors” (priority 2004, published 2006):
“And” between values parts separate entries of the source, which are not always exact repeats. Identical values can stand only once. Like-named read-outs stand apart in the source and are kept apart here.

Tests used:
[1] = system: 16.2 kb mitochondrial fragment; settings: cited from earlier work
[2] = system: 17.7 kb fragment of the nuclear beta-globin gene; settings: cited from earlier work
[3] = system: XPA Cells #32 (PGHS-/neo+); test: Cytotoxicity: colony-forming ability of negative control XPA cells; format: cell-based, human; settings: treated two hours, incubated 10 days
Protocol: (§1) XPA cells #12 (PGHS^+/neo^+) and #32 (PGHS^−/neo^+) were selected for cytotoxicity and mutagenicity assays. Cytotoxicity assays were carried out by assaying the loss of colony-forming ability as previously described (1).
(§2) Cells were treated as follows: (a) no treatment, (b) 100 μM arachidonic acid (AA), (c) 200 μM AA, (d) 5 μM benzo(a)pyrene-7,8-dihydrodiol (BPD), (e) 5 μM BPD+100 μM AA, (f) 5 μM BPD+200 μM AA, (g) 100 μM butylated hydroxyanisole (BHA), (h) 100 μM BHA+5 μM BPD+100 AA and (i) 100 μM BHA+5 μM BPD+200 μM AA. BPD was dissolved in tetrahydrofuran.
(§3) Cytotoxicity of environmental toxicants to PGHS-2^+/neo^+ (PGHS-2-dependent) XPA and wild type cells were assayed by measuring colony-forming ability. Mutagenicity of the chemical was assayed by measuring induction of 6-thioguanine resistance of the cells, which was a result of mutation of the cells to the HPRT-phenotype.
(§4) Cytotoxicity assays were carried out by assaying the loss of colony-forming ability. Briefly, after harvesting, cells were plated at a cloning density of 600 cells/well in six-well plates and incubated for 7-12 days. The colonies were washed with PBS, fixed with methanol, stained with 0.04% methylene blue, and counted.

[4] = system: XPA human skin fibroblast cell line which expressed cytochrome P450 1A1; settings: by an endogenously formed metabolite of BPD; cited from earlier work
8.8 kb mitochondrial DNA = test: QPCR (14 cycles) followed by real-time PCR DNA damage analysis in XPA cells; format: cell-based, human
Description: QPCR products of 2.3 kb and 8.8 kb mitochondrial DNA were quantitated by real-time PCR with primers to produce a 112 bp fragment using the ABI PRISM® 7700 (Applied Biosystems). DNA replication was monitored by addition of a double-stranded DNA binding dye, SYBR® Green I (Applied Biosystems).
Real-time PCR primers selected from the […].
Concentrations of 8.8 kb PCR products were obtained after treatment of PGHS-2-expressing DNA damage repair deficient cells with t-BOOH (PGHS-2 substrate) and BPD (a premutagen) using a standard curve. The standard curve was obtained by real-time PCR with various concentrations of the 8.8 kb DNA.
QPCR of a 16.2 kb, 8.8 kb and 2.3 kb mitochondrial DNA and 2.3 kb p53 and 0.5 kb β-globin nuclear DNA were carried out using biotinylated nucleotide primers. The reaction mixture contained 15 ng of template DNA, 1.2 mM MgSO4, 0.2 mM deoxynucleotide triphosphates, 0.2 μM biotinylated primers, and 1 unit of Platinum Pfx DNA polymerase (Life Technologies). Alternatively, the QPCR was carried out with the GeneAmp XL PCR kit (PerkinElmer/Roche) which contains rTth DNA polymerase XL and XL PCR buffer as previously described (9).
The PCR was initiated with a 90° C. hot-start addition of the polymerase. Initial denaturation was carried out for 1 min at 94° C. followed by cycles of denaturation at 94° C. for 15 sec, primer extension and annealing at 66° C. for 12 min and final extension at 72° C. for 10 minutes. The DNA product was separated by electrophoresis on 1% agarose gel and visualized by ethidium bromide staining.
Best fitting real-time PCR primers were selected using Primer Express program (Applied Biosystems). The PCR primers selected for a real-time PCR were used to replicate 112 bp of PCR for both 8.8 kb and 2.3 kb mitochondrial DNA. The primer binding sites are located in the middle 2.1 kb section (the missing part in 6.7 kb internal control) of 8.8 kb fragment. […] The real-time PCR primers for 112 bp product (Tm, 79° C.) are […] […]
Standard curve for real-time PCR analysis was obtained with the 8.8 kb standards ranging from 0.012 to 1200 pg. Concentrations of the 8.8 kb DNA preparation were spectrophotometrically measured. […] Using the standard curve to obtain relationship of log concentrations of various standards and Ct, QPCR product levels of the samples were calculated.
Real-time PCR analysis was carried out and specificity of the real-time PCR of the 8.8 kb fragment was analyzed by (a) agarose gel electrophoresis of 40 cycle replicated 112 bp real-time PCR product and (b) melting curve of the 112 bp product. […]
Single 112 bp real-time PCR product was detected in each sample and a sharp melting curve at 79° C., which agreeded with the theoretical Tm, was obtained. […]

[5] = system: XPA Cells #12 (PGHS+/neo+); test: Cytotoxicity: colony-forming ability of PGHS-2 expressing XPA cells; format: cell-based, human; settings: for Colony Number (% of Control): treated two hours, incubated 10 days
Protocol: as §1, §2, §3, §4

[6] = system: 16.2 kb mitochondrial DNA; test: QPCR DNA damage analysis in XPA cells #12; format: cell-based, human; settings: 0.5 mM t-BOOH; 3 hours; 26 cycles; FIG. 5
Protocol: Panel A, ethidium bromide staining of biotinylated mitochondrial DNA fragments (16.2 kb), Panel B, visualization of the biotinylated mitochondrial DNA fragments by chemiluminescent assay (ECL) system, Panel C, a negative control, ethidium bromide staining of biotinylated β-globin (0.55 kb) DNA fragments and Panel D, visualization of the biotinylated β-globin DNA fragments by an ECL system.
Lane 1, bp standards, lanes 2 and 3, cells treated with 1 mM t-BOOH+solvent for BPD (tetrahydrofuran), lanes 4 and 5, cells treated with 1 mM t-BOOH+5 μM BPD, lanes 6 and 7, cells treated with solvent for AA (ethanol), lanes 8 and 9, cells treated with 100 μM AA and lanes 10 and 11, cells treated with 100 μM AA+5 μM BPD. Cells were treated for 3 hours at 37° C., DNA was isolated and QPCRs were carried out using biotinylated nucleotide primers. […]
DNA damage repair deficient XPA cells #12 (PGHS-2+) were grown and cells were treated for three hours at 37° C. with 0.5 mM or 1 mM t-BOOH with or without 5 μM to 15 μM BPD. […] DNA fragments were transferred to a nitrocellulose membrane and visualized by a streptavidin-horseradish peroxidase/chemiluminescent (ECL) system followed by quantitation with a densitometer. Visualization of the DNA fragments by the ECL system amplified intensity of each DNA band and made it possible to quantitate each DNA band using a densitometer. […]

[7] = 200 μM for 15 minutes, in 1.5 hours
[8] = 200 μM for 60 minutes, in 3.5 hours

OO [hydrogen peroxide]
repair of DNA damage [1, 7]: completely repaired | repair of DNA damage [1, 8]: no repair | level of PCR products of the mitochondrial fragment relative to that of the nuclear beta-globin gene ([1]; 200 and 400 μM for an hour): 20%-30% | repair of DNA damage [2, 7]: completely repaired | repair of DNA damage [2, 8]: complete DNA repair

O[C@H]1C=Cc2c(cc3ccc4cccc5ccc2c3c45)[C@@H]1O (relative stereo) [BPD, benzo(a)pyrene-trans-7,8-dihydrodiol]
Colony Number (% of Control) ([3]; 5 μM BPD): 88.0 ± 3.3 % of Control | mutation frequencies versus wild type cell line [4]: approximately three-fold higher mutation frequencies | % mean value of control, 112.47 pg (8.8 kb mitochondrial DNA; 5 mM BPD, samples 1 and 2): 93.1 ± 2.7% and 111.9 ± 2.3% | pg DNA after 14 cycles of first PCR (8.8 kb mitochondrial DNA; 5 mM BPD, samples 1 and 2 = separate cell culture experiments): 104.71 ± 3.02 pg and 125.89 ± 2.59 pg | Colony Number (% of Control) ([5]; 5 μM BPD): 214.3 ± 7.1 % of Control | colony number (text summary of Table 1) ([5]; treatment for two hours): dramatically increased colony number

COc1ccc(O)c(C(C)(C)C)c1 [BHA, butylated hydroxyanisole]
Colony Number (% of Control) ([3]; 100 μM BHA): 96.0 ± 3.8 % of Control | Colony Number (% of Control) ([5]; 100 μM BHA): 211.9 ± 4.8 % of Control | colony number (text summary of Table 1) ([5]; treatment for two hours): dramatically increased colony number

CCCCC/C=C\C/C=C\C/C=C\C/C=C\CCCC(=O)O [AA, arachidonic acid]
Colony Number (% of Control) ([3]; 100 μM AA): 70.1 ± 0.6 % of Control | Colony Number (% of Control) ([3]; 200 μM AA): 72.0 ± 6.2 % of Control | colony number (text summary of Table 1) [5]: dramatically increased colony number | Colony Number (% of Control) ([5]; 100 μM AA): 133.3 ± 12.6 % of Control | Colony Number (% of Control) ([5]; 200 μM AA): 140.5 ± 8.3 % of Control

CC(C)(C)OO [t-BOOH, tert-butyl hydroperoxide]
16.2 kb PCR product level [6]: −50 % of control | % mean value of control, 112.47 pg (8.8 kb mitochondrial DNA; 0.5 mM t-BOOH, samples 1 and 2): 70.6 ± 2.0% and 46.7 ± 1.9% | pg DNA after 14 cycles of first PCR (8.8 kb mitochondrial DNA; 0.5 mM t-BOOH, samples 1 and 2): 79.40 ± 2.24 pg and 52.48 ± 2.19 pg
